Laboratory results from patent US9605000B2, “Spiro azetidine isoxazole derivatives and their use as SSTR antagonists” (Takeda Pharmaceutical Company Limited, priority 2013, dated 2017).

Legend:
human SSTR5 = biological target: T1, human SSTR5 (Homo sapiens, UniProt P35346); experiment: Human SSTR5 antagonist activity using intracellular cAMP concentration as indicator (somatostatin 28, Test Example 2); format: cell-based; conditions: 1 μM test compound; somatostatin 28 and 0.3 μM forskolin; CHO (dhfr-) cells expressing human SSTR5; HTRF cAMP; read-out: Inhibition rate (%) with respect to SSTR5 in concentration of 1 μM
T1 construct: expressed in transfected cells
Procedure: Evaluation of Human SSTR5 Antagonist Activity Using an Intracellular cAMP Concentration as an Indicator
Measurement of the intracellular cAMP concentration was performed using a HTRF cAMP dynamic 2 kit (manufactured by Cisbio). A test compound which was diluted with an assay buffer (5 mM HEPES (pH 7.5) (manufactured by Invitrogen Corp.), 0.1% fatty-acid free BSA (manufactured by Sigma-Aldrich, Inc.), HBSS (manufactured by Invitrogen Corp.) containing 500 μM IBMX (manufactured by Wako Pure Chemical Industries, Ltd) was added by 2 μL/well to a 384 well white plate (manufactured by Greiner) such that a final concentration become 1 μM. A frozen stock, which was stably expressed dihydrofolate reductase-deficient CHO (dhfr-) cells in which human SSTR5 gene (Accession No. NM001053) was melted in a thermostatic chamber at 37° C., and it was suspended on a medium of subculture (medium prepared from MEM alpha (manufactured by Wako Pure Chemical Industries, Ltd.), 10% dialyzed serum (manufacture by Gemini Co., Ltd.) and 50 μg/mL gentamicin (manufactured by Invitrogen Corp.). After centrifuging the cell suspension, the cell suspension was resuspended using the assay buffer, and the resultant was added to each well by 2 μL/well to be 4000 cells/well. After a test compound and cells were incubated for 15 minutes. An assay buffer which contains 0.1 nM of somatostatin 28 (manufactured by Toray Research Center) and 0.3 μM of forskolin (manufactured by Wako Pure Chemical Industries, Ltd) as a final concentration was added by […], and incubation was performed for 30 minutes at room temperature. Each of cAMP-d2 and anti-cAMP-cryptate was added by 3 μL/well, it was allowed to stand for 60 minutes at room temperature, and FRET (Fluorescence resonance energy transfer) intensity was measured using Multi-label reader Envision (manufactured by Perkin Elmer Inc.). Using the calibration curve prepared from the FRET intensity of well groups in which cAMP as arbitrary concentration was added to an assay buffer, FRET intensity of wells in which a test compound group was added was converted into cAMP concentration. Inhibitory activity of compounds was calculated using the following equation. Inhibitory activity (%)=(C−B)/(A−B)×100 A: cAMP concentration calculated from wells in which 0.3 μM of forskolin is added B: cAMP concentration calculated from wells in which 0.3 μM of forskolin and 1 nM of somatostatin 28 are added C: cAMP concentration wells in which 0.3 μM of forskolin, 1 nM of somatostatin 28 and 1 μM of test compound are added
Inhibition rates (%) are described in Table 3 with respect to SSTR5 in concentration of 1 μM of a test compound.

C57BL/6J mice = experiment: Evaluation of glucose lowering effect (oral glucose load in high fat diet fed mice, Test Example 3); format: in vivo; conditions: 3 mg/kg oral, male C57BL/6J mice on HFD, Mean ± SD, n = 6
Procedure: Evaluation of Glucose Lowering Effect
8-week-old male C57BL/6J mice were purchased from CLEA Japan, Inc. After feeding high fat diet (HFD; D12492, Research Diets, Inc.) for a week, weight of mice is measured a day before the experiment, and the mice were separated in groups based on the weight. On the day of experiment, vehicle (0.5% methyl cellulose solution) or test drug (0.5% methyl cellulose suspension) were orally administered 1 hour after fasting was started and glucose load was given orally 9 hours after fasting was started. Just before the glucose load, Blood Glucose (BG) was measured by drawing blood from the tail (pre), and BG was measured again from the tail 10 minutes, 30 minutes, 60 minutes and 120 minutes after the glucose load. All values were indicated with Mean±Standard Deviation (SD), and in the statistical analysis, Williams test was used for the case of equal variance and Shirley-Williams test was used for non-equal variance in the comparison of the vehicle group and test drug group.

hERG = hERG (Homo sapiens, UniProt Q12809); experiment: hERG activity measurement by IonWorks Quattro (Test Example 4); format: cell-based; conditions: 5 minutes exposure, CHO cells stably expressing hERG, IonWorks Quattro PPC mode
Procedure: hERG Activity Measurement by IonWorks Quattro
A cell strain CYL3038 having hERG stably expressed in CHO cells was purchased from Millipore LIMITED. A subculture of CYL3038 was prepared using Ham's F-12 medium containing 10% FBS and 500 μg/mL Geneticin, under the presence of 5% CO2 at 32° C. hERG current inhibition was measured by PPC mode of IonWorks Quattro (Molecular Devices, Inc.). As an extracellular fluid, PBS (+) was used. As an intracellular fluid, 20 mM HEPES buffer (pH 7.3) containing 140 mM KCl, 2 mM MgCl2 and 1 mM EGTA was used, and the cell was perforated by amphotericin. As the voltage protocol, holding potential was set to −80 mV, prepulsevoltage was set to 40 mV (2 seconds) and test pulsevoltage was set to −50 mV (2 seconds). Current values before and after addition of compound are respectively recorded as pre-compound hERG current and post-compound hERG current.

T1 sequence (P35346 whole entry): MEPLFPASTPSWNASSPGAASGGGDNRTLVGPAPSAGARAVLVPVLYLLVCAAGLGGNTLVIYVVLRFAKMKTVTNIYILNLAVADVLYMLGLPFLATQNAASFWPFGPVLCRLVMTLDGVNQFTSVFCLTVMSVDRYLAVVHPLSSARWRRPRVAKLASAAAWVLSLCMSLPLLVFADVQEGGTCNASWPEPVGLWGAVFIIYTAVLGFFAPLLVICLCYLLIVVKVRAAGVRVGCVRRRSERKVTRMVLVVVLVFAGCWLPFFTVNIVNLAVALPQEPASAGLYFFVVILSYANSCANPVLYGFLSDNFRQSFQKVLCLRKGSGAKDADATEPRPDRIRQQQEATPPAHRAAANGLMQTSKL
Chain of hERG (Q12809 whole entry): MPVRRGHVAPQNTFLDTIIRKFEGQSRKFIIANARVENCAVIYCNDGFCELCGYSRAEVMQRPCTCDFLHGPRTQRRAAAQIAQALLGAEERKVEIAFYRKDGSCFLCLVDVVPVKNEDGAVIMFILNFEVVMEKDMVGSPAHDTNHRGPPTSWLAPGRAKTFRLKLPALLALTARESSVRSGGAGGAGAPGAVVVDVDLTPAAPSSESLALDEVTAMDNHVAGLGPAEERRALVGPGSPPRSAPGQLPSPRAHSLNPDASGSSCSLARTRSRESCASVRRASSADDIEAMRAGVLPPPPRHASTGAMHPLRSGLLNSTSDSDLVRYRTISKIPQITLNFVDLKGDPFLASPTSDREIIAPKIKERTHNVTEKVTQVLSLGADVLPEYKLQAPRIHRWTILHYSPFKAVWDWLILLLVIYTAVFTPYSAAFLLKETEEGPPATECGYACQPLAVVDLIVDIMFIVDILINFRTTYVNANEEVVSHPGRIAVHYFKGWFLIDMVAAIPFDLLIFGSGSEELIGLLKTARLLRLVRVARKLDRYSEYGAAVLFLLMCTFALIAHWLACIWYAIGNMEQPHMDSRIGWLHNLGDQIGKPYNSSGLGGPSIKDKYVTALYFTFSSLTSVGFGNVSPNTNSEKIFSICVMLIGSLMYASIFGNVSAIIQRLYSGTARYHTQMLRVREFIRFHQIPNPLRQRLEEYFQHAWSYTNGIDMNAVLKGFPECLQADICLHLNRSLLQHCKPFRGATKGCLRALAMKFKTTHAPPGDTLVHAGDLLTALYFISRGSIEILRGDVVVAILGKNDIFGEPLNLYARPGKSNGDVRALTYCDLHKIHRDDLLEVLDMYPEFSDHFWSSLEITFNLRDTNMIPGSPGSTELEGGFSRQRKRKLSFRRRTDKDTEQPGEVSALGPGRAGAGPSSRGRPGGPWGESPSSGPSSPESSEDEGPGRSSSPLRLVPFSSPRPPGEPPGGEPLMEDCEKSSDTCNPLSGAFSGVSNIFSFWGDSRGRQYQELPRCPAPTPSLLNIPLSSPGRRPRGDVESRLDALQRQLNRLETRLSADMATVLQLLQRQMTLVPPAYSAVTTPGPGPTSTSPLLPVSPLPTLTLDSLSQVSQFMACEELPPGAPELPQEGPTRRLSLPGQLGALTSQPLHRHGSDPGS

| Structure (SMILES) | inhibition at 1 µM (human SSTR5) | further results |
| --- | --- | --- |
| COc1c(CN2CC3(CC(N4CCC(C)(C(=O)O)CC4)=NO3)C2)cc(C2CC2)c(-c2ccc(F)cc2)c1Cl [Example 238, 1-(2-((2-Chloro-6-cyclopropyl-4′-fluoro-3-methoxybiphenyl-4-yl)methyl)-5-oxa-2,6-diazaspiro[3.4]oct-6-en-7-yl)-4-methylpiperidine-4-carboxylic acid] | 99% | Blood Glucose (BG) 10 min (C57BL/6J mice; 10 minutes after glucose load): 261 ± 42; Blood Glucose (BG) 30 min (C57BL/6J mice; 30 minutes after glucose load): 350 ± 49; Blood Glucose (BG) 60 min (C57BL/6J mice; 60 minutes after glucose load): 345 ± 38; Blood Glucose (BG) 120 min (C57BL/6J mice; 120 minutes after glucose load): 188 ± 22; AUCpre-120 min (C57BL/6J mice; blood glucose AUC pre to 120 min after glucose load): 576 ± 52; Blood Glucose (BG) pre (C57BL/6J mice; just before glucose load): 148 ± 19; % hERG inhibition (10 μM) (hERG): 10% |
| CCOc1c(CN2CC3(CC(N4CCC(C)(C(=O)O)CC4)=NO3)C2)cc(C2CC2)c(C2CC2)c1F [Example 257, 1-(2-(4,5-Dicyclopropyl-2-ethoxy-3-fluorobenzyl)-5-oxa-2,6-diazaspiro[3.4]oct-6-en-7-yl)-4-methylpiperidine-4-carboxylic acid] | 117% |  |
| CCOc1c(CN2CC3(CC(N4CCC(C)(C(=O)O)CC4)=NO3)C2)cc(C2CC2)c(-c2ccc(F)cc2)c1Cl [Example 239, 1-(2-((2-Chloro-6-cyclopropyl-3-ethoxy-4′-fluorobiphenyl-4-yl)methyl)-5-oxa-2,6-diazaspiro[3.4]oct-6-en-7-yl)-4-methylpiperidine-4-carboxylic acid] | 94% |  |
| CCOc1c(CN2CC3(CC(N4CCC(C(=O)O)CC4)=NO3)C2)cc(C2CC2)c(-c2ccc(F)cc2)c1F [Example 261, 1-(2-((6-Cyclopropyl-3-ethoxy-2,4′-difluorobiphenyl-4-yl)methyl)-5-oxa-2,6-diazaspiro[3.4]oct-6-en-7-yl)piperidine-4-carboxylic acid] | 92% |  |
| CCOc1cc(C2CC2)c(C2CC2)cc1CN1CC2(CC(N3CCC(C)(C(=O)O)CC3)=NO2)C1 [Example 250, 1-(2-(4,5-Dicyclopropyl-2-ethoxybenzyl)-5-oxa-2,6-diazaspiro[3.4]oct-6-en-7-yl)-4-methylpiperidine-4-carboxylic acid] | 98% |  |
| CCC1(C(=O)O)CCN(C2=NOC3(C2)CN(Cc2cc(C4CC4)c(-c4ccc(F)cc4F)c(Cl)c2OC)C3)CC1 [Example 262, 1-(2-((2-Chloro-6-cyclopropyl-2′,4′-difluoro-3-methoxybiphenyl-4-yl)methyl)-5-oxa-2,6-diazaspiro[3.4]oct-6-en-7-yl)-4-ethylpiperidine-4-carboxylic acid] | 100% |  |
| COc1c(CN2CC3(CC(N4CCC(C)(C(=O)O)CC4)=NO3)C2)cc(C2CC2)c(-c2ccc(F)cc2F)c1Cl [Example 258, 1-(2-((2-Chloro-6-cyclopropyl-2′,4′-difluoro-3-methoxybiphenyl-4-yl)methyl)-5-oxa-2,6-diazaspiro[3.4]oct-6-en-7-yl)-4-methylpiperidine-4-carboxylic acid] | 124% |  |
| CC(C)Oc1cc(C2CC2)c(C2CC2)cc1CN1CC2(CC(N3CCC(C)(C(=O)O)CC3)=NO2)C1 [Example 248, 1-(2-(4,5-Dicyclopropyl-2-isopropoxybenzyl)-5-oxa-2,6-diazaspiro[3.4]oct-6-en-7-yl)-4-methylpiperidine-4-carboxylic acid] | 102% |  |
| COc1c(CN2CC3(CC(N4CCC(C)(C(=O)O)CC4)=NO3)C2)cc(C2CC2)c(-c2ccc(F)cc2F)c1F [Example 259, 1-(2-((6-Cyclopropyl-2,2′,4′-trifluoro-3-methoxybiphenyl-4-yl)methyl)-5-oxa-2,6-diazaspiro[3.4]oct-6-en-7-yl)-4-methylpiperidine-4-carboxylic acid] | 90% |  |
| COc1c(CN2CC3(CC(N4CCC(C)(C(=O)O)CC4)=NO3)C2)cc(C2CC2)c(-c2ccc(F)cc2)c1F [Example 265, 1-(2-((6-Cyclopropyl-2,4′-difluoro-3-methoxybiphenyl-4-yl)methyl)-5-oxa-2,6-diazaspiro[3.4]oct-6-en-7-yl)-4-methylpiperidine-4-carboxylic acid] | 92% | % hERG inhibition (10 μM) (hERG): 18% |
